Reference: PubChem BioAssay (NCI)
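These data come from cells grown in 96-well plates and exposed to compound for 48 hours at five concentrations. GI50 is the concentration that inhibits growth by half. The concentration for full growth arrest is given as TGI.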

Assays:
Test in all cases: inhibition of tumour cell growth, NCI panel, 48 h
UO-31 renal = test system: UO-31 renal
SNB-19 CNS = test system: SNB-19 CNS
UACC-62 melanoma = test system: UACC-62 melanoma
CAKI-1 renal = test system: CAKI-1 renal
COLO 205 colon = test system: COLO 205 colon
HL-60(TB) leukemia = test system: HL-60(TB) leukemia
HCC-2998 colon = test system: HCC-2998 colon
MCF7 breast = test system: MCF7 breast
SF-539 CNS = test system: SF-539 CNS
MDA-MB-435 = test system: MDA-MB-435

Row | Structure (SMILES) | GI50 (UO-31 renal) [µM] | TGI (UO-31 renal) [µM] | GI50 (SNB-19 CNS) [µM] | TGI (SNB-19 CNS) [µM] | GI50 (UACC-62 melanoma) [µM] | TGI (UACC-62 melanoma) [µM] | GI50 (CAKI-1 renal) [µM] | TGI (CAKI-1 renal) [µM] | GI50 (COLO 205 colon) [µM] | TGI (COLO 205 colon) [µM] | GI50 (HL-60(TB) leukemia) [µM] | TGI (HL-60(TB) leukemia) [µM] | GI50 (HCC-2998 colon) [µM] | TGI (HCC-2998 colon) [µM] | GI50 (MCF7 breast) [µM] | TGI (MCF7 breast) [µM] | GI50 (SF-539 CNS) [µM] | TGI (SF-539 CNS) [µM] | TGI (MDA-MB-435) [µM] | GI50 (MDA-MB-435) [µM]
1 | CCOC(=O)n1cc(C2=C(c3cn(C)c4ccccc34)COC2=O)c2ccccc21 | 0.0781 | > 100 | 0.259 | > 63.2 | 0.0599 | > 55.6 | 0.0492 | 18.5 | 0.241 | 2.41 | 0.124 | 0.511 | 0.167 | > 100 | 0.032 | > 100 | 0.119 | 0.584 | – | –
2 | COC(=O)C(=O)C(C(=O)C(=O)Nc1nc2ccc(C)cc2s1)c1nc2ccc([N+](=O)[O-])cc2[nH]c1=O (centres undefined) | – | > 100 | – | > 100 | – | > 100 | – | > 100 | – | – | – | > 100 | – | > 100 | – | > 100 | – | > 100 | > 100 | –
3 | O=C(/C(=C\c1ccc([N+](=O)[O-])cc1)S(=O)Cc1ccc(F)cc1)c1ccc(F)cc1 (centres undefined) | 1.52 | 3.23 | 2.37 | 5.61 | 1.71 | 3.25 | 2.07 | 5.54 | 1.91 | 3.63 | 2.09 | 5.38 | 1.69 | 3.22 | – | – | 1.69 | 3.37 | 4.09 | 1.84
4 | CCN(CC)CCOc1ccccc1/C=C/c1noc2ccccc12 | – | 19.3 | – | 26.7 | – | 22.4 | – | 26.2 | – | 24.1 | – | 40.1 | – | 18 | – | 27.9 | – | 31.8 | – | –
5 | N/N=C(\C(=O)Nc1ccc(Cl)cc1Cl)C(c1cnc2ccccc2n1)[N+](=O)[O-] (centres undefined) | – | > 100 | – | – | – | > 100 | – | > 100 | – | – | – | > 100 | – | > 100 | – | > 100 | – | > 100 | > 100 | –
6 | O=C1NC(=O)C(=C/C=C/c2ccccc2)C(=O)N1 | – | – | 5.14 | 24.7 | 1.88 | 4.5 | – | – | 2.33 | 4.97 | 2.91 | 8.08 | 2.2 | 4.1 | 2.97 | 20.1 | 2.33 | 6.3 | – | –
7 | O=C1c2nsnc2C(=O)c2c(F)c(F)c(F)c(F)c21 | 0.702 | 2 | 1.2 | 2.56 | 1.2 | 2.5 | – | – | 0.236 | 0.527 | 0.591 | 2.73 | 1.56 | 3.14 | 0.398 | 2.19 | 1.7 | 3.14 | 2.14 | 0.846
8 | Clc1ccc2c(c1)N(CCCN1CCCC1)c1ccccc1S2 | 6.61 | 20.7 | 9.63 | 28.1 | 10.2 | 25.2 | 11 | 22.9 | 2.5 | 7.34 | 4.34 | 16.8 | 4.41 | 15.5 | 3.22 | 13.6 | – | – | 4.02 | 1.92
9 | COc1ccc2c(CN3CCC(C(=O)O)CC3)cc3cc4c(cc3c2c1)OCO4 | – | – | 3.35 | 22.6 | 1.59 | 3.03 | 2.44 | 7.8 | 1.55 | 4.33 | 3.97 | 15.3 | 2.72 | 11 | 3.1 | 18.3 | 3.38 | 14 | 7.42 | 2.66
10 | Oc1ccc(O)c(-c2cn3ccsc3n2)c1 | 12.6 | 25.2 | 20.9 | 49.7 | 10.8 | 29.9 | 2.18 | 4.99 | 21.4 | 48.2 | – | – | 16.5 | 31.1 | 5.5 | 27.2 | – | – | 23.7 | 11.2
11 | N#Cc1ccccc1NC(=O)C(=O)c1c(O)c2ccccc2oc1=O | – | > 100 | – | > 100 | – | > 100 | – | > 100 | – | – | – | > 100 | – | > 100 | – | > 100 | – | > 100 | > 100 | –
12 | O=C(c1ccccc1)N1C2CCC1C(C(F)(F)F)=C2C(F)(F)F | – | > 100 | – | > 100 | – | > 100 | – | > 100 | – | > 100 | – | > 100 | – | > 100 | – | – | – | > 100 | – | –
13 | CCN1C(=O)N(CC)C2Nn3c(s/c(=C\c4ccccc4Br)c3=O)=NC21 (centres undefined) | 2 | > 100 | 3.18 | > 100 | 2.18 | 31.1 | 1.75 | 38.2 | – | – | 1.28 | 3.19 | 2.4 | – | 1.78 | > 100 | 0.889 | 3.08 | – | –
14 | CC(=O)c1ccc(OCC(O)CO)cc1 (centres undefined) | – | > 100 | – | > 100 | – | > 100 | – | > 100 | – | > 100 | – | > 100 | – | > 100 | – | – | – | > 100 | – | –
15 | NC(N)=N/N=C/c1c(-c2cc(Cl)sc2Cl)nc2sccn12 | 2 | > 50 | – | – | 0.752 | 1.46 | 7.65 | 16.3 | – | – | – | – | 0.854 | 1.56 | 0.843 | 2.05 | 0.969 | 1.72 | 15.1 | 4.03
16 | O=C(O)C[C@H]1CCCCC12CCOC2=O (some centres undefined) | – | > 100 | – | > 100 | – | > 100 | – | > 100 | – | > 100 | – | > 100 | – | > 100 | – | – | – | > 100 | – | –
17 | COc1ccc2cc(-c3cc4c(oc3=O)-c3ccccc3OC4O)c(=O)oc2c1 (centres undefined) | 17.5 | 33.4 | 16.2 | 30.5 | 16.2 | 30.4 | 14.9 | 29.8 | 16.1 | 33.4 | > 100 | > 100 | – | – | 17.1 | 34.1 | 15.2 | 29.2 | 36 | 16.4
18 | CC(=O)Nc1cc(N(CCOS(C)(=O)=O)CCOS(C)(=O)=O)ccc1N=O | – | > 100 | – | > 100 | – | > 100 | – | > 100 | – | > 100 | – | > 100 | – | > 100 | – | – | – | > 100 | – | –
